According to ChEMBL document CHEMBL4811240, “Discovery of N-substituted sulfamoylbenzamide derivatives as novel inhibitors of STAT3 signaling pathway based on Niclosamide” (Eur J Med Chem, 2021):
Activity calls are given as the source filed them. No cut-off for these calls is given here.

Columns and labels:
[1] = biological target: Mast/stem cell growth factor receptor Kit (Homo sapiens) (UniProt P10721); assay: Inhibition of c-KIT (544 to 976 residues) (unknown origin) expressed in Sf21 cells at 10 uM preincubated for 10 mins followed by peptide substrate addition relative to control
Chain of Mast/stem cell growth factor receptor Kit (Homo sapiens) (P10721 whole entry, the tested form may be a part): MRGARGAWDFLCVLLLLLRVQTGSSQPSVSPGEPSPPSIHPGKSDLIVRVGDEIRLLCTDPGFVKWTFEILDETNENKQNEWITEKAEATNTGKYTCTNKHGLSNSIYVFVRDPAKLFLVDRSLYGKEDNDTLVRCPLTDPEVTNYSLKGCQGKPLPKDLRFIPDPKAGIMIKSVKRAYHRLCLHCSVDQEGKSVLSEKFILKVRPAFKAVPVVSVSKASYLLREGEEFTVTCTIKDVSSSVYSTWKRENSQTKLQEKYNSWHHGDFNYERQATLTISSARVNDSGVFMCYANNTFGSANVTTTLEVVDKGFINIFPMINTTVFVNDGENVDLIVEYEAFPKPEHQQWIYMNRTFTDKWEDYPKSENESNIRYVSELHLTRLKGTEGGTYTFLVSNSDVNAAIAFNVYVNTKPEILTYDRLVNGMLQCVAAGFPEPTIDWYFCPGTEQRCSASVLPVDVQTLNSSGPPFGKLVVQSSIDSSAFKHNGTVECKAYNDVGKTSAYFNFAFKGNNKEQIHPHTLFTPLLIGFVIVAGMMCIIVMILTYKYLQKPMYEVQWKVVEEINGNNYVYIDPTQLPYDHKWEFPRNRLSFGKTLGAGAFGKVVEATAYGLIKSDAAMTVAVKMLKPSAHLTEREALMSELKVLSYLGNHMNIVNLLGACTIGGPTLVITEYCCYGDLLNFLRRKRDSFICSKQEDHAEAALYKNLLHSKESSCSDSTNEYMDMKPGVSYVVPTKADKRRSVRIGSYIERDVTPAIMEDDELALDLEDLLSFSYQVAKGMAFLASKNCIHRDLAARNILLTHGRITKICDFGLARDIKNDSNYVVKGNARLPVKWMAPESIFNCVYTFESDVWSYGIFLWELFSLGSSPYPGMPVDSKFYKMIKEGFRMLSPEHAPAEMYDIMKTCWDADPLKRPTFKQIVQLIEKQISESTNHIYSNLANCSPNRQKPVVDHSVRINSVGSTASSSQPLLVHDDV

[2] = biological target: Fibroblast growth factor receptor 4 (Homo sapiens) (UniProt P22455); assay: Inhibition of FGFR4 (460 to 802 residues) (unknown origin) expressed in Sf21 cells at 10 uM preincubated for 10 mins followed by peptide substrate addition relative to control
Chain of Fibroblast growth factor receptor 4 (Homo sapiens) (P22455 22-802 limits assumed): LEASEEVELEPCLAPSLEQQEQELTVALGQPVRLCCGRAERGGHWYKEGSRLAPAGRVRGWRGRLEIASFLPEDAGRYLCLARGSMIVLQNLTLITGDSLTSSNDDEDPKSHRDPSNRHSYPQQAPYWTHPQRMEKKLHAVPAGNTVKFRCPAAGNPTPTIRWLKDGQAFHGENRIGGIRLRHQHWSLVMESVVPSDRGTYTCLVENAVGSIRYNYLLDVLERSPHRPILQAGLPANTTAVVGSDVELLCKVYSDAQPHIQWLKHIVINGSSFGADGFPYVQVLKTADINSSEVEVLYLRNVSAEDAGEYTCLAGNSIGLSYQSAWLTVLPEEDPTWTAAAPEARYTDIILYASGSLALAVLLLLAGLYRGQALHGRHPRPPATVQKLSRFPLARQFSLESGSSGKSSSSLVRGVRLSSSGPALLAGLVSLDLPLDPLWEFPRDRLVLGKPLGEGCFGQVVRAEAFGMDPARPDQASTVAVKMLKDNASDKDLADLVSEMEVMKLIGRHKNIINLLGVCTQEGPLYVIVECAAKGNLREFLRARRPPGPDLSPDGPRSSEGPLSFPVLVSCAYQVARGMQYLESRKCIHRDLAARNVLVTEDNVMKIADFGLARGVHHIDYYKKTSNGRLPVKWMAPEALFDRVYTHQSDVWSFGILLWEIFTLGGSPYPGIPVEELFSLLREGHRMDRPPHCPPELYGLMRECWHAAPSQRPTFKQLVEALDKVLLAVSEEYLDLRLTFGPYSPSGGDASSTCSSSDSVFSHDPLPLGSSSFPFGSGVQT

[3] = Lipophilicity, log P of the compound; format: physicochemical; settings: octanol/water
[4] = biological target: Proto-oncogene tyrosine-protein kinase receptor Ret (Homo sapiens) (UniProt P07949); assay: Inhibition of RET (658 to 1114 residues) (unknown origin) expressed in Sf21 at 10 uM preincubated for 10 mins followed by peptide substrate addition relative to control
Chain of Proto-oncogene tyrosine-protein kinase receptor Ret (Homo sapiens) (P07949 whole entry, the tested form may be a part): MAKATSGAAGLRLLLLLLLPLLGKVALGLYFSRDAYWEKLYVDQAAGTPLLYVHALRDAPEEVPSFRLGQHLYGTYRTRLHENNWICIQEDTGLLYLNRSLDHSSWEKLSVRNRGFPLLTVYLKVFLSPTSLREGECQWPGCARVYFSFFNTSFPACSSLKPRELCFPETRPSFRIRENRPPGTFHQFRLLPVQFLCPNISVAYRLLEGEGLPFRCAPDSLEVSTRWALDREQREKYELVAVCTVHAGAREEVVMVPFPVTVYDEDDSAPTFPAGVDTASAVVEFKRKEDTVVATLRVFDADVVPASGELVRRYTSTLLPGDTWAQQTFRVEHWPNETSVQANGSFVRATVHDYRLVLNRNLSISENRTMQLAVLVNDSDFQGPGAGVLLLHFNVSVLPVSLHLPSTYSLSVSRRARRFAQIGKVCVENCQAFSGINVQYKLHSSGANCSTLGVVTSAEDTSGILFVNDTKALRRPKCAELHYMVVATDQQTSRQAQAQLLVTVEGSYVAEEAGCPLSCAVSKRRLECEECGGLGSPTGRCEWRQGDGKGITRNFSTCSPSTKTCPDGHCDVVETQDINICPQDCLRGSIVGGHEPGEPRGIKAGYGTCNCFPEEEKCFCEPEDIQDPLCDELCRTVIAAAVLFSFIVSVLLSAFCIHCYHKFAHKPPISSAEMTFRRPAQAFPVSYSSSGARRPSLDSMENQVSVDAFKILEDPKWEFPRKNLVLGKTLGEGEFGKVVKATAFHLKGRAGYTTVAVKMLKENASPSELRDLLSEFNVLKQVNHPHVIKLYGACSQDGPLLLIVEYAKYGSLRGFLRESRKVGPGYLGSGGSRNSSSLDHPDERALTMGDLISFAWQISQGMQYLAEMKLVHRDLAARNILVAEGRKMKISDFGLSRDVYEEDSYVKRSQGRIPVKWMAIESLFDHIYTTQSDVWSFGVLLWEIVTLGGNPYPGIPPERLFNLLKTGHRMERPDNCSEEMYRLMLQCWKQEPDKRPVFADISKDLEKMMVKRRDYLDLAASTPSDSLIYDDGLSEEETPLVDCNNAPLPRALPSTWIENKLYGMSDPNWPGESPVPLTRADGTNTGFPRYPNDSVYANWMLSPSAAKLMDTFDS

[5] = biological target: Serine/threonine-protein kinase PLK1 (Homo sapiens) (UniProt P53350); assay: Inhibition of full length PLK1 (1 to 603 residues) (unknown origin) expressed in Sf21 at 10 uM preincubated for 10 mins followed by peptide substrate addition relative to control
Chain of Serine/threonine-protein kinase PLK1 (Homo sapiens) (P53350 whole entry, the tested form may be a part): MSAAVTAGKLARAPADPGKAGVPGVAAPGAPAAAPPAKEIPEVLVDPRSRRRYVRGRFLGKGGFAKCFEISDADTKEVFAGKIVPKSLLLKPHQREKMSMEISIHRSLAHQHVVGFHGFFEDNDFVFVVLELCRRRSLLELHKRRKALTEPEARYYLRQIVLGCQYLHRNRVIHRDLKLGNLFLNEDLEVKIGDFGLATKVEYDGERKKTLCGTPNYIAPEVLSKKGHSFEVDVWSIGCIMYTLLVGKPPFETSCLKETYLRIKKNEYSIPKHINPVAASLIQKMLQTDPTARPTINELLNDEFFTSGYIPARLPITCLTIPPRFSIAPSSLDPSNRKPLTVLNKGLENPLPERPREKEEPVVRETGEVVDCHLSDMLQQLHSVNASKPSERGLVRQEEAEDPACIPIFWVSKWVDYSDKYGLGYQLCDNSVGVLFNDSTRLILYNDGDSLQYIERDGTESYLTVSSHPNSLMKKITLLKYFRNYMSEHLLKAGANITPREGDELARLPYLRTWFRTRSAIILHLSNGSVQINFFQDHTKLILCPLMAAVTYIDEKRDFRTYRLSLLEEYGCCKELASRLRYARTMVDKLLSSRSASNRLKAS

[6] = biological target: Platelet-derived growth factor receptor beta (Homo sapiens) (UniProt P09619); assay: Inhibition of PDGFRbeta (557 to 1106 residues) (unknown origin) expressed in Sf21 at 10 uM preincubated for 10 mins followed by peptide substrate addition relative to control
L3.6pl = assay: Antiproliferative activity against human L3.6 cells assessed as inhibition of cell viability at 10 uM after 48 hrs by MTT assay relative to control; format: functional
[7] = biological target: Fibroblast growth factor receptor 1 (Homo sapiens) (UniProt P11362); assay: Inhibition of FGFR1 (398 to 822 residues) (unknown origin) expressed in Sf21 cells at 10 uM preincubated for 10 mins followed by peptide substrate addition relative to control
MDA-MB-231 [8] = assay: Induction of apoptosis in human MDA-MB-231 cells assessed as apoptotic cells at 5 uM measured after 24 hrs by annexinV-FITC/propidium iodide staining based flow cytometry analysis (reference value: 2.49%); format: functional
[9] = biological target: Receptor-type tyrosine-protein kinase FLT3 (Homo sapiens) (UniProt P36888); assay: Inhibition of recombinant human His-tagged FLT3 expressed in baculovirus expression system at 10 uM preincubated for 10 mins followed by peptide substrate addition relative to control
[10] = biological target: Proto-oncogene tyrosine-protein kinase Src (Homo sapiens) (UniProt P12931); assay: Inhibition of full length SRC (1 to 536 residues) (unknown origin) expressed in Sf21 cells at 10 uM preincubated for 10 mins followed by peptide substrate addition relative to control
[11] = biological target: Cyclin-dependent kinase 7 (Homo sapiens) (UniProt P50613); assay: Inhibition of CDK7 (unknown origin) at 10 uM preincubated for 10 mins followed by peptide substrate addition relative to control
Chain of Cyclin-dependent kinase 7 (Homo sapiens) (P50613 whole entry): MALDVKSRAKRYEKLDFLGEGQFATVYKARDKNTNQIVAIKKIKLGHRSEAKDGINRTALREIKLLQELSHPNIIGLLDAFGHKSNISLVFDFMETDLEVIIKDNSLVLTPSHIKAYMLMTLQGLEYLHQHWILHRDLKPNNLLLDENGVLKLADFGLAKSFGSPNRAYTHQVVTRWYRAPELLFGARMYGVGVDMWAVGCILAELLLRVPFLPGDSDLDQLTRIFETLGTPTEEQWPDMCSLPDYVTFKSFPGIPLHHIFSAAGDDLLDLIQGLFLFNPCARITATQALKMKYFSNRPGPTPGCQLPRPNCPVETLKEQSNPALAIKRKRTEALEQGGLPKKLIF

MDA-MB-231 [12] = assay: Induction of apoptosis in human MDA-MB-231 cells assessed as apoptotic cells at 2.5 uM measured after 24 hrs by annexinV-FITC/propidium iodide staining based flow cytometry analysis (reference value: 2.49%); format: functional
[13] = biological target: Tyrosine-protein kinase JAK2 (Homo sapiens) (UniProt O60674); assay: Inhibition of JAK2 (826 to 1132 residues) (unknown origin) expressed in Sf21 cells at 10 uM preincubated for 10 mins followed by peptide substrate addition relative to control
[14] = biological target: Vascular endothelial growth factor receptor 1 (Homo sapiens) (UniProt P17948); assay: Inhibition of recombinant human GST-tagged FLT1 (781 to 1338 residues) expressed in baculovirus expression system at 10 uM preincubated for 10 mins followed by peptide substrate addition relative to control
[15] = biological target: Tyrosine-protein kinase JAK1 (Homo sapiens) (UniProt P23458); assay: Inhibition of JAK1 (850 to 1154 residues) (unknown origin) expressed in Sf21 cells at 10 uM preincubated for 10 mins followed by peptide substrate addition relative to control
MDA-MB-231 [16] = assay: Induction of apoptosis in human MDA-MB-231 cells assessed as increase in cleaved PARP expression at 1 to 10 uM incubated for 24 hrs by Western blot analysis; format: functional, cell-based; settings: dose 1-10 µM
[17] = biological target: Insulin-like growth factor 1 receptor (Homo sapiens) (UniProt P08069); assay: Inhibition of IGF1R (959 to 1367 residues) (unknown origin) expressed in Sf21 cells at 10 uM preincubated for 10 mins followed by peptide substrate addition relative to control
[18] = biological target: Signal transducer and activator of transcription 3 (Homo sapiens) (UniProt P40763); assay: Inhibition of IL-6 induced STAT3 phosphorylation in human MDA-MB-231 cells at 5 uM incubated for 2 hrs by Western blotting analysis; format: cell-based
Chain of Signal transducer and activator of transcription 3 (Homo sapiens) (P40763 whole entry, the tested form may be a part): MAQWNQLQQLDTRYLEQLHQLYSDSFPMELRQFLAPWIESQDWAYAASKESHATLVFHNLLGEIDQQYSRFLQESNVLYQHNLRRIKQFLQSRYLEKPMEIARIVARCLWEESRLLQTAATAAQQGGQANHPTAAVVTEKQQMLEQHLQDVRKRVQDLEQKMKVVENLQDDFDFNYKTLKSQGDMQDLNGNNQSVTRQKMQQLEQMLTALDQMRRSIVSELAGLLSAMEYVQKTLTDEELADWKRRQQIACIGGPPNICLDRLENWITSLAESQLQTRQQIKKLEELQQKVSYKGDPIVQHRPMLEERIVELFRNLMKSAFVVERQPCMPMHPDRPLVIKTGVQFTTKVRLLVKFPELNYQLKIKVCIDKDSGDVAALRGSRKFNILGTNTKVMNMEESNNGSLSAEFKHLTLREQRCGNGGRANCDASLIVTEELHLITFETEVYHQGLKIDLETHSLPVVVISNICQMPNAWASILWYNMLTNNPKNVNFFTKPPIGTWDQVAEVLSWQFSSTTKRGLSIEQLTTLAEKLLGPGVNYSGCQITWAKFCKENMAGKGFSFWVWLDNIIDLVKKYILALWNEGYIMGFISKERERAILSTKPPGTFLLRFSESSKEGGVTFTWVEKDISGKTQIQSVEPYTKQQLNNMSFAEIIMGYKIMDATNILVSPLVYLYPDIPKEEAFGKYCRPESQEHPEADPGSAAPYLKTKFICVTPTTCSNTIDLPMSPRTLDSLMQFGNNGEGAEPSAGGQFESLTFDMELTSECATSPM

MDA-MB-231 [19] = assay: Induction of apoptosis in human MDA-MB-231 cells assessed as decrease in Bcl-xl expression at 1 to 10 uM incubated for 24 hrs by Western blot analysis; format: functional, cell-based; settings: dose 1-10 µM
[20] = biological target: Mitogen-activated protein kinase 9 (Homo sapiens) (UniProt P45984); assay: Inhibition of N-terminal GST-tagged JNK2 (1 to 364 residues) (unknown origin) expressed in Escherichia coli at 10 uM preincubated for 10 mins followed by peptide substrate addition relative to control
Chain of Mitogen-activated protein kinase 9 (Homo sapiens) (P45984 whole entry, looked up, the tested form may be a part): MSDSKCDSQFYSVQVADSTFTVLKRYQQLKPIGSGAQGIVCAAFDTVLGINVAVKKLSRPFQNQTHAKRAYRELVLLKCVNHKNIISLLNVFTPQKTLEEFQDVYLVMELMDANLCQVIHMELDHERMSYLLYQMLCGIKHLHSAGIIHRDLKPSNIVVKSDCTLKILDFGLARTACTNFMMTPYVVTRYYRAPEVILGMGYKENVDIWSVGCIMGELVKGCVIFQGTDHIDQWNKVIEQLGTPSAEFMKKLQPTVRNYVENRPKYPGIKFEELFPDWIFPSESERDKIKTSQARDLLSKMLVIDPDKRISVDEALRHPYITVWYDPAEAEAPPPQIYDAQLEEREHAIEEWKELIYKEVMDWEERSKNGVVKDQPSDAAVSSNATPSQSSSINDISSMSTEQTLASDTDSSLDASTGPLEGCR

[21] = biological target: Fibroblast growth factor receptor 2 (Homo sapiens) (UniProt P21802); assay: Inhibition of N-terminal GST-tagged FGFR2 (399 to 821 residues) (unknown origin) expressed in Sf21 cells at 10 uM preincubated for 10 mins followed by peptide substrate addition relative to control
MDA-MB-231 [22] = assay: Inhibition of colony formation in human MDA-MB-231 cells at 1 uM after 24 hrs followed by compound washout and subsequent incubation for 14 days by crystal violet staining based assay; format: functional, cell-based
[23] = system: Epidermal growth factor receptor (Homo sapiens), P00533 [L858R]; assay: Inhibition of EGFR L858R mutant (669 to 1210 residues) (unknown origin) expressed in Sf21 cells at 10 uM preincubated for 10 mins followed by peptide substrate addition relative to control
[24] = biological target: Inhibitor of nuclear factor kappa-B kinase subunit beta (Homo sapiens) (UniProt O14920); assay: Inhibition of IKKbeta (1 to 662 residues) (unknown origin) expressed in Sf21 cells at 10 uM preincubated for 10 mins followed by peptide substrate addition relative to control
[25] = biological target: Signal transducer and activator of transcription 3 (Homo sapiens) (UniProt P40763); assay: Inhibition of STAT3 phosphorylation at Y705 residue in human MDA-MB-231 cells incubated for 2 hrs by Western blotting analysis; format: cell-based; settings: dose 1-10 µM
[26] = biological target: Proto-oncogene tyrosine-protein kinase ROS (Homo sapiens) (UniProt P08922); assay: Inhibition of N-terminal GST-tagged ROS1 (1883 to 2347 residues) (unknown origin) expressed in Sf21 cells at 10 uM preincubated for 10 mins followed by peptide substrate addition relative to control
MDA-MB-231 [27] = assay: Antiproliferative activity against human MDA-MB-231 cells assessed as inhibition of cell viability after 48 hrs by MTT assay; format: functional, cell-based; settings: MDA-MB-231, 48 h
MDA-MB-231 [28] = assay: Inhibition of human MDA-MB-231 cells migration after 24 hrs by crystal violet staining based transwell migration assay; format: functional, cell-based; settings: dose 0.1-1 µM

SMILES: CC(C)(C)OC(=O)c1ccc(NC(=O)c2ccc(Cl)c(S(N)(=O)=O)c2)cc1
- inhibition [1]: 3.33%
- inhibition [2]: -1.53%
- logP [3]: 1.83
- inhibition [4]: -7.23%
- inhibition [5]: 5.19%
- inhibition [6]: -1.19%
- inhibition at 10 µM (L3.6pl): 21.9%
- inhibition [7]: 3.58%
- Activity (MDA-MB-231 [8]): 23.14%
- inhibition [9]: 10.2%
- inhibition [10]: 1.42%
- inhibition [11]: 6.45%
- Activity (MDA-MB-231 [12]): 16.01%
- inhibition [13]: 4.77%
- inhibition [14]: 4.33%
- inhibition [15]: 2.99%
- Activity (MDA-MB-231 [16]): Active
- inhibition [17]: 2.93%
- inhibition [18]: 100%
- Activity (MDA-MB-231 [19]): Active
- inhibition [20]: 4.16%
- inhibition [21]: 5.28%
- inhibition (MDA-MB-231 [22]): Active
- inhibition [23]: 4.82%
- inhibition [24]: 2.87%
- inhibition [25]: Dose-Dependent Effect
- inhibition [26]: -3.38%
- IC50 (MDA-MB-231 [27]): 610 nM
- inhibition (MDA-MB-231 [28]): Dose-Dependent Effect
